Source: ChEMBL document CHEMBL4196245, “Structures and Antimutagenic Effects of Onoceranoid-Type Triterpenoids from the Leaves of Lansium domesticum” (2018)
Calls of active or inactive are those of the source. No cut-off for these calls is given here.

How the values were obtained:
Salmonella typhimurium [1] = test: Antimutagenic activity against Salmonella typhimurium TA98 assessed as inhibition of Trp-P-1-induced mutation at 80 nmol/plate measured in presence of S9 fraction by Ames test relative to control; format: functional, Salmonella enterica subsp. enterica serovar Typhimurium
Salmonella typhimurium [2] = test: Antimutagenic activity against Salmonella typhimurium TA98 assessed as inhibition of Trp-P-1-induced mutation at 100 nmol/plate measured in presence of S9 fraction by Ames test relative to control; format: functional, Salmonella enterica subsp. enterica serovar Typhimurium
Mus musculus = species: Mus musculus; test: Antimutagenic activity against PhIP-induced mutation in ICR mouse assessed as reduction in micronucleated reticulocytes at 0.03 to 0.06% w/w treated prior to PhIP addition measured 24 to 48 hrs post dose by fluorescence microscopic analysis; format: functional, organism-based

For `COc1ccc(-c2cc(=O)c3c(OC)c(OC)c(OC)c(OC)c3o2)cc1OC` [NOBILETIN], the “inhibition (INH)” value (Salmonella typhimurium [1]) was 56%.

With `C=C(C)[C@@H]1CC=C(C)[C@H](CC[C@H]2C(=C)CC[C@H]3C(C)(C)[C@@H](O)CC[C@]23C)[C@@]1(C)CCC(=O)OC` the “inhibition (INH)” value (Salmonella typhimurium [2]) was 29.5%.

With `C=C(C)[C@@H]1CC=C(C)[C@H](CC[C@H]2C(=C)CC[C@H]3C(C)(C)[C@@H](O)CC[C@]23C)[C@@]1(C)CCC(=O)O` the “inhibition (INH)” value (Salmonella typhimurium [2]) was 73.8%.

In the case of `C=C(C)[C@@H]1CC=C(C)[C@H](CC[C@H]2C(=C)CC[C@H]3C(C)(C)C(=O)CC[C@]23C)[C@@]1(C)CCC(=O)O`, the Activity (Mus musculus) is reported as “Active”.

For `C=C(C)[C@@H]1CC=C(C)[C@H](CC[C@H]2C(=C)CC[C@H]3C(C)(C)[C@@H](O)CC[C@]23C)[C@@]1(C)CCC(=O)OCC` [ETHYL LANSIOLATE], the “inhibition (INH)” value (Salmonella typhimurium [2]) was 7.9%.
